≈ marks a conversion by molar mass, not a printed value. A value given as a limit tells only on which side of the number the result lay.

As a reminder, the MIC is the smallest concentration in the dilution series that meets the test's criterion for growth inhibition. A low value points to greater potency.

What all share (type): functional
One assay has as its system Pseudomonas fluorescens. Briefly: Antimicrobial activity against Pseudomonas fluorescens CGMCC1.1828 after 24 hrs by twofold serial microdilution method. The settings on record: CGMCC1.1828, 24 h.
Another assay concerns Candida albicans. Briefly: Antimicrobial activity against Candida albicans CGMCC2.2086 after 48 hrs by twofold serial microdilution method. The settings on record: CGMCC2.2086, 48 h.
A further assay deals with Candida tropicalis. As to the kind of experiment: Antimicrobial activity against Candida tropicalis CGMCC2.3967 after 48 hrs by twofold serial microdilution method. The settings on record: CGMCC2.3967, 48 h. For orientation: Dilution methods test growth across graded concentrations, often in twofold steps.
A further assay deals with Staphylococcus aureus. Briefly: Antimicrobial activity against Staphylococcus aureus CGMCC1.1361 after 24 hrs by twofold serial microdilution method. The settings on record: CGMCC1.1361, 24 h.
The next assay concerns Aspergillus niger. Briefly: Antimicrobial activity against Aspergillus niger CGMCC3.316 after 48 hrs by twofold serial microdilution method. The settings on record: CGMCC3.316, 48 h.
Another assay deals with Bacillus subtilis. Briefly: Antimicrobial activity against Bacillus subtilis CGMCC1.1162 after 24 hrs by twofold serial microdilution method. Conditions: CGMCC1.1162, 24 h.
A further assay relates to Escherichia coli. Briefly: Antimicrobial activity against Escherichia coli CGMCC1.1571 after 24 hrs by twofold serial microdilution method. Conditions: CGMCC1.1571, 24 h.

Consider `COC(=O)[C@]1(C)CCC[C@]2(C)c3ccc(C(C)C)cc3-c3c(c4ccccc4n3CCNc3ccc([N+](=O)[O-])cc3)[C@@H]12`, for which the MIC is 15.6 µg/mL (≈ 27.6 µM) against Pseudomonas fluorescens; 31.2 µg/mL (≈ 55.2 µM) in the assay with Candida albicans; 62.5 µg/mL (≈ 110 µM) with Candida tropicalis; 7.8 µg/mL (≈ 13.8 µM) against Staphylococcus aureus; more than 100 µg/mL with Aspergillus niger; 15.6 µg/mL (≈ 27.6 µM) with Bacillus subtilis. Inhibition of growth against Escherichia coli (MIC) required 31.2 µg/mL (≈ 55.2 µM).
`COC(=O)[C@]1(C)CCC[C@]2(C)c3ccc(C(C)C)cc3-c3c(c4ccccc4n3CCN3CCOCC3)[C@@H]12`: the MIC in the assay on Pseudomonas fluorescens amounted to 31.2 µg/mL (≈ 60.6 µM); with Candida albicans, 62.5 µg/mL (≈ 121 µM); in the assay with Candida tropicalis it was 31.2 µg/mL (≈ 60.6 µM); in the assay with Staphylococcus aureus, 7.8 µg/mL (≈ 15.2 µM); in the assay with Aspergillus niger, 62.5 µg/mL (≈ 121 µM); against Bacillus subtilis, 15.6 µg/mL (≈ 30.3 µM). This molecule also registered an MIC in the assay with Escherichia coli of 31.2 µg/mL (≈ 60.6 µM).
Regarding `COC(=O)[C@]1(C)CCC[C@]2(C)c3ccc(C(C)C)cc3-c3c(c4ccccc4n3CCN3CCCC3)[C@@H]12`, the MIC was more than 100 µg/mL in the assay on Pseudomonas fluorescens; more than 100 µg/mL with Candida albicans; more than 100 µg/mL with Candida tropicalis; 62.5 µg/mL (≈ 125 µM) with Staphylococcus aureus; more than 100 µg/mL against Aspergillus niger; 31.2 µg/mL (≈ 62.6 µM) against Bacillus subtilis. The molecule also displayed an MIC with Escherichia coli of more than 100 µg/mL.
On to `COC(=O)[C@]1(C)CCC[C@]2(C)c3ccc(C(C)C)cc3-c3c(c4ccccc4n3CCN(CCO)CCO)[C@@H]12`, for which the MIC is 62.5 µg/mL (≈ 117 µM) with Pseudomonas fluorescens; 62.5 µg/mL (≈ 117 µM) in the assay on Candida albicans; 31.2 µg/mL (≈ 58.6 µM) in the assay with Candida tropicalis; more than 100 µg/mL against Staphylococcus aureus; more than 100 µg/mL against Aspergillus niger; 62.5 µg/mL (≈ 117 µM) against Bacillus subtilis. The molecule also came in with an MIC in the assay on Escherichia coli of 62.5 µg/mL (≈ 117 µM).
Take `COC(=O)[C@]1(C)CCC[C@]2(C)c3ccc(C(C)C)cc3-c3c(c4ccccc4n3CCN3CCNCC3)[C@@H]12`: the MIC in the assay with Pseudomonas fluorescens came to 15.6 µg/mL (≈ 30.4 µM); in the assay with Candida albicans, 31.2 µg/mL (≈ 60.7 µM); in the assay on Candida tropicalis, 31.2 µg/mL (≈ 60.7 µM); against Staphylococcus aureus it was 15.6 µg/mL (≈ 30.4 µM); with Aspergillus niger, 62.5 µg/mL (≈ 122 µM); against Bacillus subtilis it was 7.8 µg/mL (≈ 15.2 µM). This molecule gave an MIC in the assay with Escherichia coli of 15.6 µg/mL (≈ 30.4 µM).
For `CCN(CC)CCn1c2c(c3ccccc31)[C@H]1[C@](C)(C(=O)OC)CCC[C@]1(C)c1ccc(C(C)C)cc1-2`, the MIC was 62.5 µg/mL (≈ 125 µM) against Pseudomonas fluorescens; 62.5 µg/mL (≈ 125 µM) against Candida albicans; more than 100 µg/mL in the assay on Candida tropicalis; 62.5 µg/mL (≈ 125 µM) with Staphylococcus aureus; more than 100 µg/mL in the assay with Aspergillus niger; 31.2 µg/mL (≈ 62.3 µM) in the assay on Bacillus subtilis. Besides, the MIC against Escherichia coli was more than 100 µg/mL.
`COC(=O)[C@]1(C)CCC[C@]2(C)c3ccc(C(C)C)cc3-c3c(c4ccccc4n3CCNc3ccc(OC)cc3)[C@@H]12`: the MIC against Pseudomonas fluorescens is more than 100 µg/mL; in the assay with Candida albicans it was more than 100 µg/mL; in the assay on Candida tropicalis, more than 100 µg/mL; against Staphylococcus aureus, 62.5 µg/mL (≈ 113 µM); in the assay with Aspergillus niger, more than 100 µg/mL; in the assay with Bacillus subtilis, more than 100 µg/mL. Further, the MIC with Escherichia coli is more than 100 µg/mL.
Turning to `COC(=O)[C@]1(C)CCC[C@]2(C)c3ccc(C(C)C)cc3-c3c(c4ccccc4n3CCn3ccnc3)[C@@H]12`, the MIC against Pseudomonas fluorescens is more than 100 µg/mL; with Candida albicans, 62.5 µg/mL (≈ 126 µM); in the assay with Candida tropicalis it was more than 100 µg/mL; in the assay on Staphylococcus aureus it was 15.6 µg/mL (≈ 31.5 µM); in the assay with Aspergillus niger, more than 100 µg/mL; in the assay on Bacillus subtilis it was 31.2 µg/mL (≈ 62.9 µM). This molecule also showed an MIC with Escherichia coli of 62.5 µg/mL (≈ 126 µM).
As for `COC(=O)[C@]1(C)CCC[C@]2(C)c3ccc(C(C)C)cc3-c3c(c4ccccc4n3CCBr)[C@@H]12`, the MIC was more than 100 µg/mL in the assay with Pseudomonas fluorescens; more than 100 µg/mL in the assay with Candida albicans; more than 100 µg/mL against Candida tropicalis; 62.5 µg/mL (≈ 123 µM) in the assay with Staphylococcus aureus; more than 100 µg/mL against Aspergillus niger; 31.2 µg/mL (≈ 61.4 µM) in the assay with Bacillus subtilis. The MIC in the assay on Escherichia coli was more than 100 µg/mL.
Consider `NCC[C@H](O)C(=O)N[C@@H]1C[C@H](N)[C@@H](O[C@H]2O[C@H](CN)[C@@H](O)[C@H](O)[C@H]2O)[C@H](O)[C@H]1O[C@H]1O[C@H](CO)[C@@H](O)[C@H](N)[C@H]1O.O=S(=O)(O)O`, for which the MIC with Pseudomonas fluorescens was 0.9 µg/mL; in the assay with Staphylococcus aureus it was 0.9 µg/mL; against Bacillus subtilis, 0.9 µg/mL; against Escherichia coli, 1.9 µg/mL.
On to `CC(=O)N1CCN(c2ccc(OCC3COC(Cn4ccnc4)(c4ccc(Cl)cc4Cl)O3)cc2)CC1` (racemic) [KETOCONAZOLE], for which the results for the MIC with Candida albicans, against Candida tropicalis and against Aspergillus niger were 3.9 µg/mL (≈ 7.34 µM), 3.9 µg/mL (≈ 7.34 µM) and 7.8 µg/mL (≈ 14.7 µM), respectively.

For the origin of these results see ChEMBL document CHEMBL3098094, “Synthesis and biological evaluation of novel N-substituted 1H-dibenzo[a,c]carbazole derivatives of dehydroabietic acid as potential antimicrobial agents” (2014).
